Measured values from US8465947B2, “Lantibiotic biosynthetic gene clusters from A. garbadinensis and A. liguriae” (Novacta Biosystems Limited, priority 2006, dated 2013).
Values after ≈ are worked out from the molar mass of the structure shown.

System: C. difficile
Assay: MIC against C. difficile, NCCLS agar dilution method for anaerobic bacteria
Format: cell-based, Clostridium difficile
Details: calcium 50 μg/ml
Description: Minimum inhibitory concentrations (MICs) for C. difficile were determined and antimicrobial agent stock solutions were prepared and stored according to the NCCLS reference agar dilution method for anaerobic bacteria (M11-A5, 2001). Two-fold serial antibiotic dilutions were prepared in Wilkens-Chalgren agar (WCA). Test organisms were selected from 48 hour growth on Braziers (C.C.E.Y.) agar, subcultured in Schaedler broth to a density equivalent to a McFarland 0.5 standard (1×10^8 CFU/ml), with a final inoculum onto WCA plates of approximately 10^5 CFU/spot. Bacteroides fragilis ATCC 25285 was included as a reference control strain and Metronidazole was used as a reference antibiotic for quality control. All manipulations were performed in duplicate in ambient atmosphere in pre-reduced media with only brief exposure to oxygen. Plates were incubated anaerobically for 48 hours at 37° C. with the MIC defined as the concentration of drug where a marked reduction occurred in the appearance of growth on the test plate compared to growth on the anaerobic control plate.
Culture media were supplemented with calcium ions (as calcium chloride) at 50 μg/ml except where higher concentrations are indicated.

SMILES | MIC C. difficile 19126 | MIC C. difficile 37779
CC[C@H](C)[C@@H]1NC(=O)[C@@H]2NC(=O)[C@H](CC(C)C)NC(=O)[C@H](NC(=O)[C@@H]3CSC[C@@H](NC(=O)[C@@H](N)Cc4c[nH]c5ccccc45)C(=O)N[C@@H](CO)C(=O)NCC(=O)N[C@@H](Cc4c[nH]c5ccccc45)C(=O)N[C@@H](C(C)C)C(=O)N3)[C@H](C)SC[C@H](NC(=O)[C@H](CCC(=O)O)NC1=O)C(=O)NCC(=O)N[C@H]1C(=O)N[C@@H](CC(C)C)C(=O)N[C@@H](C(C)C)C(=O)N[C@@H](CS[C@H]2C)C(=O)N[C@@H](C)C(=O)N[C@H](C(=O)O)CS[C@H]1C [Compound IX, L-Tryp(0)deoxyactagardine B] | 2 µg/mL (≈ 0.971 µM) | 1 µg/mL (≈ 0.485 µM)
CC[C@H](C)[C@@H]1NC(=O)[C@@H]2NC(=O)[C@H](CC(C)C)NC(=O)[C@H](NC(=O)[C@@H]3CSC[C@@H](NC(=O)[C@@H](N)C(C)C)C(=O)N[C@@H](CO)C(=O)NCC(=O)N[C@@H](Cc4c[nH]c5ccccc45)C(=O)N[C@@H](C(C)C)C(=O)N3)[C@H](C)SC[C@H](NC(=O)[C@H](CCC(=O)O)NC1=O)C(=O)NCC(=O)N[C@H]1C(=O)N[C@@H](CC(C)C)C(=O)N[C@@H](C(C)C)C(=O)N[C@@H](CS[C@H]2C)C(=O)N[C@@H](C)C(=O)N[C@H](C(=O)O)CS[C@H]1C [Compound VI, L-Val(0)deoxyactagardine B] | 8 µg/mL (≈ 4.05 µM) | 8 µg/mL (≈ 4.05 µM)
